Tests used:
rats [1] = experiment: Effect on the kaolin edema in rats; assay type: in vivo, Chbb:THOM-rats; settings: 100 mg/kg p.o.
Protocol: According to Hillebrecht [Arzneimittel-Forschung 4, 607 (1954)] an edema was induced in 20 Chbb:THOM-rats (SPF) of both sexes having a body weight of 125-150 gm by subplantar injection of 0.05 ml of a 10% kaolin suspension in the hind paw. 30 minutes before, 100 mg/kg of substance B as aqua dist. solution was orally administered to 10 animals. Ten control animals received only the solvent. The thickness of the paw was measured before the administration of the test compound and 5 hours after administration. The edema-altering effect was expressed in percent of the average degree of swelling of the control animals.

taste testers [2] = experiment: Determination of the taste quality; assay type: in vivo
Protocol: The tests were performed in analogy to the method of DuBois, G. A. Crosby, R. A. Stephanson and R. E. Wingard Jr., J. Agric. […] The test compounds were used as aqueous solutions at a concentration which corresponds to an about 5% saccharose solution. As comparison compound saccharose was used. The tests were carried out under identical conditions. Only the characterization of the taste was evaluated, because the intensity was already determined in the preceding experiments. The following criteria were determined by each tester: Percentage sweet to percentage bitter to percentage another taste quality. Furthermore, the presence or absence of an after taste of the individual test compounds was determined. Each substance was tested twice with regard to five different determinations.

rats [3] = experiment: Effect on choleresis in rats; assay type: in vivo, Chbb:THOM-rats
Protocol: A cannula was tied to the ductus choledochus of anesthetized, fasted male Chbb:THOM-rats (SPF) having a body weight of 180-220 gm, and the rate of flow of bile liquid was registered via a drop counter. 100 or 200 mg/kg of substance B in aqua dist. solution were administered intraduodenally to each of 10 animals. A control group received only the solvent. The number of the drops received within 1 hour before the treatment was compared with the number of the drops received within 1-5 hours after treatment.
In Table 10 the average number of drops 1-5 hours after treatment is shown in percent, compared with the values before treatment.

Dog = experiment: Test for acute toxicity, dog; settings: for Animals which died: 2 animals
Protocol: The acute toxicity was determined after oral administration of substance B to male and female mice, rats and dogs. The substance was administered to mice and rats in the form of a suspension in tylose and to dogs in the form of a solution in water.

[4] = tested on: Candida albicans ATCC 10231; experiment: Fungistasis, serial dilution test; assay type: cell-based; settings: 320 μg/ml
Protocol: (§1) Substance B was tested with regard to its bacteria- and fungi-inhibiting effect by the serial dilution test and agar diffusion test.

Aspergillus niger = experiment: Fungistasis, serial dilution test; assay type: cell-based; settings: 320 μg/ml
Protocol: as §1

[5] = tested on: Trychophyton mentagrophytes ATCC 9129; experiment: Fungistasis, serial dilution test; assay type: cell-based; settings: 320 μg/ml
Protocol: as §1

taste testers [6] = experiment: Determination of the threshold concentration (sweet taste); assay type: in vivo
Protocol: Aqueous solutions having concentrations of 1:12,500, 1:25,000, 1:50,000, and 1:100,000 were prepared of test compounds A, B and C and of comparison compounds X, Y and Z, and each was evaluated at 5 taste testers according to the following scoring system: Very sweet (=3 points), medium sweet (=2 points), weakly sweet (=1 point), and not sweet (=0 point). The tests were carried out as described by H. G. Schutz and F. J. Pilgrim in Food Research 22, 206 (1957). The dilution perceptible as sweet was defined as having the concentration at which the average value of the evaluation points reached 1.0 or more.

mice = experiment: Effect on the duration of hexobarbital anesthesia in mice; assay type: in vivo, Chbb:NMRI-mice; settings: 100 mg/kg p.o.
Protocol: According to Winter [Pharmacol. exp. Ther. 94, 7, (1948)], 100 mg/kg of substance B in a suspension of 1% tylose were administered perorally to 10 male Chbb:NMRI-mice (SPF) having a body weight of 20 to 26 gm. A control group received only the suspension agent. After 1 hour all animals were injected i.p. with 80 mg/kg of hexobarbital. The mice were put on a metal plate at 37° C. and the time from the beginning of the loss of the righting reflex until the recurrence of this reflex was measured as the duration of the anesthesia. This time difference was calculated in percent with regard to that of the control group.

thrombocyte aggregation = experiment: Effect on thrombocyte aggregation induced by collagen; assay type: cell-based; settings: 1×10^-4 mol/liter, collagen-induced
Protocol: The thrombocyte aggregation was measured according to Born and Cross [J. Physiol. 170, 397 (1964)] in platelet-rich plasma obtained by centrifuging citrate blood. The change in the maximum aggregation rate in % compared with a control, and the percent change in the "optical density" were the measured parameters. The aggregation was induced by collagen.

## O=C1NS(=O)(=O)c2cccc(O)c21.[Na]
Rats [1]
  antiexudative effect (in words): does not show any antiexudative effect in rats
Rats [1]; 5 hours
  Average degree of swelling: 239.0
  Inhibition in %: 13.7%
Taste testers [2]
  purity of the taste: 94-96%
Taste testers [2]; 1:10000, 10 determinations
  After taste: 5
  Percentage bitter: 2%
  Percentage other taste: 2%
  Percentage sweet: 96%
Rats [3]; 100 mg/kg i.d., 1 hour
  Choleresis in %, compared with the values before treatment: 97%
  Choleresis, average number of drops: 53.3 drops/ hr
Rats [3]; 100 mg/kg i.d., 2 hours
  Choleresis in %, compared with the values before treatment: 94%
  Choleresis, average number of drops: 51.7 drops/ hr
Rats [3]; 100 mg/kg i.d., 3 hours
  Choleresis in %, compared with the values before treatment: 92%
  Choleresis, average number of drops: 50.7 drops/ hr
Rats [3]; 100 mg/kg i.d., 4 hours
  Choleresis in %, compared with the values before treatment: 91%
  Choleresis, average number of drops: 49.9 drops/ hr
Rats [3]; 100 mg/kg i.d., 5 hours
  Choleresis in %, compared with the values before treatment: 90%
  Choleresis, average number of drops: 49.5 drops/ hr
Rats [3]; 200 mg/kg i.d., 1 hour
  Choleresis in %, compared with the values before treatment: 94%
  Choleresis, average number of drops: 44.1 drops/ hr
Rats [3]; 200 mg/kg i.d., 2 hours
  Choleresis in %, compared with the values before treatment: 92%
  Choleresis, average number of drops: 43.1 drops/ hr
Rats [3]; 200 mg/kg i.d., 3 hours
  Choleresis in %, compared with the values before treatment: 92%
  Choleresis, average number of drops: 43.1 drops/ hr
Rats [3]; 200 mg/kg i.d., 4 hours
  Choleresis in %, compared with the values before treatment: 92%
  Choleresis, average number of drops: 43.5 drops/ hr
Rats [3]; 200 mg/kg i.d., 5 hours
  Choleresis in %, compared with the values before treatment: 94%
  Choleresis, average number of drops: 44.4 drops/ hr
Rats [3]; 100 and 200 mg/kg i.d.
  effect on choleresis (in words): does not show any intraduodenal effects on choleresis in rats
Dog; 5 g/kg oral, 1 day
  Animals which died: 0
Dog; 5 g/kg oral, 7 days
  Animals which died: 0
Dog; 5 g/kg oral, 14 days
  Animals which died: 0
Dog; 5 g/kg oral, during the observation time
  deaths (in words): no animals died
Dog; dog, in vivo, po
  behavior: completely normal behavior
  toxic symptoms: no toxic symptoms could be observed
[4]
  inhibiting effect: did not show any inhibiting effect
Aspergillus niger
  inhibiting effect: did not show any inhibiting effect
[5]
  inhibiting effect: did not show any inhibiting effect
Taste testers [6]; concentration 1:25000
  Average value of evaluation points: 2.6 points
Taste testers [6]; concentration 1:50000
  Average value of evaluation points: 1.2 points
Taste testers [6]; concentration 1:100000
  Average value of evaluation points: 0.0 points
mice
  effect on duration of hexobarbital anesthesia (in words): does not show any effect on the duration of hexobarbital anesthesia
mice; hexobarbital 80 mg/kg i.p.
  Duration of anesthesia: 15.65 ± 6.32 min
  Duration of anesthesia, % of control: 106%
Thrombocyte aggregation
  effect on thrombocyte aggregation (in words): does not show any effect on thrombocyte aggregation induced by collagen

Reference: patent US4404230A, “4-Hydroxy-1,2-Benzisothiazol-3(2H)-one-1,1-dioxides and salts thereof” (priority 1980, dated 1983)
